Square brackets hold non-standard residues; d marks the D form. Ends that are not written are not given here.
Tests used:
[1] = tested on: Mouse 3T3-L1 adipocytes; experiment: Free Fatty Acid Levels in 3T3-L1 Adipocytes; details: for Free Fatty Acid Levels in 3T3-L1 Adipocytes Expressed as a Percent Isoproterenol Control, Percent of Control Activity: test peptides 25 μM, 20-22 hours then isoproterenol (1 nM) 3 hours
Method: Mouse 3T3-L1 adipocytes were seeded at 3,000 cells per well in 96-well plates in Pre-adipocyte Medium (Zen-Bio, Durham, N.C.) and grown to confluence at 37° C. in a humidified atmosphere of 5% CO2/95% air. Two days after confluence, cells were placed in Adipocyte Differentiation Medium (Zen-Bio, Durham, N.C.) and cultured for three additional days at 37° C. in a humidified atmosphere of 5% CO2/95% air. The culture media was then replaced with Adipocyte Maintenance Medium (Zen-Bio) and the cells maintained for an additional 9-12 days at 37° C. in a humidified atmosphere of 5% CO2/95% air with partial medium replacement every other day. Following 12-15 days' differentiation, test peptides were added to a final concentration of 25 μM and incubated for 20-22 hours in Adipocyte Maintenance Medium. After 20-22 hours, isoproterenol (1 nM) was added to all wells except untreated controls and test peptides were replenished. Cells were incubated for a further 3 hours in Assay Buffer (Zen-Bio). Free fatty acid concentrations in the media were determined using a Free Fatty Acid Assay Kit (Zen-Bio) according to the manufacturer's instructions using a plate reader (540 nm). Absorbance values were corrected for untreated background and expressed relative to isoproterenol treated cells. Treatment with isoproterenol (1 nM) alone was used as the free fatty acid level stimulatory control. The relative standard deviation of the isoproterenol control was <10%.

[2] = tested on: MDA-MB-231 human breast cancer cell line; experiment: Caspase 3/7 Activity in MDA-MB-231 Cells (Caspase-Glo 3/7 Assay); assay type: cell-based; details: test peptides at 10 μM, 18 hours, relative to DMSO control
Method: The effect of the peptides on cell death/survival can be assessed using a caspase-3 assay. Peptides were dissolved with DMSO at 10 mM stock. […] Staurosporine (Selleckchem) was dissolved with DMSO at 1 mM stock. Caspase-Glo 3/7 Assay Reagent was purchased from Promega (Madison, Wis.). MDA-MB-231 human breast cancer cell line was purchased from American Type Culture Collection (Manassas, Va.). MDA-MB-231 cells were grown in DMEM Medium supplemented with 10% FBS. 100 μg/ml penicillin and 100 μg/ml streptomycin were added to the culture medium. […] 25 μl of Caspase-Glo 3/7 Assay Reagent was added to each well and incubated at 37° C., 5% CO2 for 1 hour. Luminescence for each sample well on the plate was measured by Envision 2104 Multilabel Reader (PerkinElmer, Santa Clara, Calif.). Activity was calculated relative to DMSO control.

[3] = tested on: MCF-7 human breast cancer cell line; experiment: MTS Assay in MCF-7 Cells (cell viability); details: test peptides at 10 μM, 72 hours, relative to DMSO control
Method: (§1) Peptides and reference compound staurosporine (Selleckchem) were dissolved with DMSO at 10 mM stock. CellTiter 96® AQueous One Solution Reagent (MTS assay reagent) was purchased from Promega (Madison, Wis.). MCF-7 human breast cancer cell line was purchased from American Type Culture Collection (Manassas, Va.). MCF-7 cells were grown in EMEM Medium supplemented with 10% FBS and 0.01 mg/ml human recombinant insulin. 100 μg/ml penicillin and 100 μg/ml streptomycin were added to the culture medium. […] 5 μl of CellTiter 96® AQueous One Solution Reagent (MTS assay reagent) was added to each well and incubated at 37° C., 5% CO2 for 5 hours. Absorbance at 492 nm was recorded by Envision 2104 Multilabel Reader. Treatment with DMSO alone was used as the cell viability activity control.

[4] = tested on: MDA-MB-231 human breast cancer cell line; experiment: MTS Assay in MDA-MB-231 Cells (cell viability); assay type: cell-based; details: 72 hours, relative to DMSO control; test concentration not given
Method: (§2) Test compounds and reference compound staurosporine (Selleckchem) were all dissolved with DMSO at 10 mM stock. […] Activity was calculated relative to DMSO control. […] Cell viability was 3% of the DMSO control value for Staurosporine (10 uM).

[5] = MTS Assay in MCF-7 Cells (cell viability); details: human
Method: as §1

[6] = MTS Assay in MDA-MB-231 Cells (cell viability); assay type: cell-based, human; details: human; Staurosporine 10 uM, positive control, MDA-MB-231 cells; read-out: Cell viability, % of the DMSO control value
Method: as §2

Row | Compound | Free Fatty Acid Levels in 3T3-L1 Adipocytes Expressed as a Percent Isoproterenol Control, Percent of Control Activity [1] [%] | other results
1 | 2 (MTHQSHAYHIVKPSP) [compound 2] | 95 | Caspase 3/7 Activity in MDA-MB-231 Cells, Percent of Control Activity [2]: 51%; MTS Assay in MCF-7 Cells, Percent of Control Activity [3]: 71%; MTS Assay in MDA-MB-231 Cells, Percent of Control Activity [4]: 85%
2 | 3 (THQSHAYHIVKPSP; not fully specified) [compound 3] | 118 | 
3 | 4 (THQSH[dA]YHIVKPSP) [compound 4] | 134 | 
4 | 5 (HQSH[dA]YHIVKPSP) [compound 5] | 111 | 
5 | 7 (MWFDYFCMSPSIDEGLTLLV) [compound 7] | 104 | Caspase 3/7 Activity in MDA-MB-231 Cells, Percent of Control Activity [2]: 29%; MTS Assay in MCF-7 Cells, Percent of Control Activity [3]: 63%; MTS Assay in MDA-MB-231 Cells, Percent of Control Activity [4]: 81%
6 | 8 (WFDYFCMSPSIDEGLTLLV) [compound 8] | 45 | 
7 | 9 (WFDYFCMSPSIDEGLTL) [compound 9] | 35 | 
8 | 10 (WFDYFAMSPSADEGLTL) [compound 10] | 55 | 
9 | 12 (MVKGDSKYSEACRRVK) [compound 12] | 135 | Caspase 3/7 Activity in MDA-MB-231 Cells, Percent of Control Activity [2]: 52%; MTS Assay in MCF-7 Cells, Percent of Control Activity [3]: 50%; MTS Assay in MDA-MB-231 Cells, Percent of Control Activity [4]: 80%
10 | 13 (VKGDSKYSEACRRVK) [compound 13] | 113 | 
11 | 14 (VKGDSKYSEACRRV) [compound 14] | 112 | 
12 | 15 (VKGDSKYSEACR) [compound 15] | 128 | 
13 | 17 (MVLFFRSSKLQYGRLFRSLVG) [compound 17] | 75 | Caspase 3/7 Activity in MDA-MB-231 Cells, Percent of Control Activity [2]: 43%; MTS Assay in MCF-7 Cells, Percent of Control Activity [3]: 40%; MTS Assay in MDA-MB-231 Cells, Percent of Control Activity [4]: 75%
14 | 18 (VLFFRSSKLQYGRLFRSLVG) [compound 18] | 84 | 
15 | 19 (VLFFRSSKLQYGRLFRSLA) [compound 19] | 95 | 
16 | 20 (LFFRSSKLQYGRLFRSA) [compound 20] | 73 | 
17 | 22 (MVWLRLSGSKVEWVWG) [compound 22] | 93 | Caspase 3/7 Activity in MDA-MB-231 Cells, Percent of Control Activity [2]: 31%; MTS Assay in MCF-7 Cells, Percent of Control Activity [3]: 47%; MTS Assay in MDA-MB-231 Cells, Percent of Control Activity [4]: 75%
18 | 23 (VWLRLSGSKVEWVWG) [compound 23] | 71 | 
19 | 24 (VWLRLSGSKVEWVW; not fully specified) [compound 24] | 81 | 
20 | 25 ([dA]WLRLSGSKVEWV) [compound 25] | 93 | 
21 | CN[C@@H]1C[C@H]2O[C@@](C)([C@@H]1OC)n1c3ccccc3c3c4c(c5c6ccccc6n2c5c31)C(=O)NC4 [staurosporine, reference compound] |  | viability at 72 h, 10 µM [5]: < 5%; viability at 72 h, 10 µM [6]: 3%
22 | insulin [reference compound] |  | Free fatty acid levels, % of the isoproterenol control value ([1]; insulin 100 nM, positive control): < 5%

From patent publication US20220305079A1, “THERAPEUTIC PEPTIDES” (COHBAR, INC., priority 2019, published 2022)
